Molecules are shown by their SMILES. pIC50: −log10 of the molar value. The source made the active and inactive calls. The rule behind the calls is not given here.

Data set [1] deals with T1, S-adenosylmethionine synthase isoform type-2 (Homo sapiens, UniProt P31153). In words: Inhibition of recombinant human MAT2A expressed in baculovirus infected Sf9 cells assessed as S-adenosyl methionine production using L-methionine as substrate incubated for 60 mins followed by substrate addition and measured after 60 mins. The note with it: for pIC50: read-out: IC50; for IC50: sf9.
Target sequence in this assay (P31153 whole entry, canonical isoform): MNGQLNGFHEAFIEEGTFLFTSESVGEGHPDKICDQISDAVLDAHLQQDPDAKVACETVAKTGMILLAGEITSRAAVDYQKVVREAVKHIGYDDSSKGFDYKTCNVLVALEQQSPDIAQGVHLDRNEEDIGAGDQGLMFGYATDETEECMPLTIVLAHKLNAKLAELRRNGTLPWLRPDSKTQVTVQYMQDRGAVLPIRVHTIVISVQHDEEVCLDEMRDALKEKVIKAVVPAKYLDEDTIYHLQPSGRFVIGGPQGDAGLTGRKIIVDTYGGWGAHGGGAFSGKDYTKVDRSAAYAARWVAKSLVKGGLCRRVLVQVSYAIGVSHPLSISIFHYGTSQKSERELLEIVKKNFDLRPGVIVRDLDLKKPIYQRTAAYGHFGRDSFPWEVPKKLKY

Data set [2] concerns the target T1, S-adenosylmethionine synthase isoform type-2. In words: Inhibition of recombinant human MAT2A expressed in baculovirus infected Sf9 cells assessed as S-adenosyl methionine production using L-methionine as substrate incubated for 60 mins followed by substrate addition and measured after 60 mins relative to control. Also on record: concentration or dose not given beside the values.
Target sequence in this assay (P31153 whole entry, looked up, canonical isoform): as the sequence (P31153 whole entry, canonical isoform) above

Data set [3] is described as follows: Stability in human liver microsomes assessed as extraction ratio. It is filed as ADME, Microsome. The note with it: read-out: ERH. (In general: Liver microsomes are a subcellular fraction often used to study metabolism.)
Data set [4] relates to HCT-116. Put plainly: cells. As to conditions: Homo sapiens, HCT-116, 96 h.
Data set [5] in a line: cells. As to conditions: Homo sapiens, HCT-116, 72 h.

Take `O=c1cc(Nc2ccccc2)[nH]c2c(-c3ccccc3)c(-c3ccccc3)nn12`: the pIC50 (commonly the IC50 on a negative log10 scale, so that one unit is a factor of ten) in data set [1] was 4.78. Also, the inhibition (as a rule, the drop in the measured response relative to a control, in per cent) in data set [2] came out at 70%.

In the case of `O=c1c(-c2ccc3ncccc3c2)c(Nc2cc[nH]n2)[nH]c2c(-c3ccccc3)c(-c3ccccc3)nn12`, the pIC50 in data set [1] was 8.15; in data set [4], 6.28. Moreover, the hepatic extraction ratio in data set [3] worked out at 0.49. For the same compound, the inhibition in data set [2] worked out at 94%.

As for `Cc1[nH]c2c(-c3ccccc3)c(-c3ccccc3)nn2c(=O)c1-c1ccc(O)cc1`, the negative logarithm of the IC50 (pIC50) in data set [1] is 7.48. Further, in data set [3], the hepatic extraction ratio came out at 0.54. Moreover, the inhibition in data set [2] was 93%.

Take `Cc1[nH]c2c(N3CCCCC3)c(-c3ccccc3)nn2c(=O)c1-c1ccc2ncccc2c1`: the pIC50 in data set [1] was 7.28. The hepatic extraction ratio in data set [3] amounted to 0.88. Moreover, the inhibition in data set [2] came out at 95%.

In the case of `Cc1[nH]c2c(N3CCCCC3)c(-c3ccccc3)nn2c(=O)c1-c1cscn1`, the negative-log IC50 (pIC50) in data set [1] was 6.80. Also, the inhibition in data set [2] was 85%.

For the compound `Cc1cc(=O)n2nc(-c3ccccc3)c(C3CCCCC3)c2[nH]1`, in data set [1], the pIC50 is 6.18. Besides, the inhibition in data set [2] came to 59%.

Consider `COc1ccc(-c2c(Nc3cc[nH]n3)[nH]c3c(C4=CCCCC4)c(-c4ccccc4)nn3c2=O)cc1`, for which the figures for the pIC50 in data set [1], in data set [5] and in data set [4] were 8.30, 7.68 and 7.10, respectively. Also, the hepatic extraction ratio in data set [3] was found to be 0.56. The inhibition in data set [2] stood at 96%.

As to `Cc1cc(=O)n2nc(-c3cccc(F)c3)c(-c3ccccc3)c2[nH]1`, in data set [1], the pIC50 was 5.72. Further, the inhibition in data set [2] is 76%.

`Cc1[nH]c2c(N3CCCCC3)c(-c3ccccc3)nn2c(=O)c1-c1ccc2[nH]c(N)nc2c1`: in data set [1], the pIC50 was 7.08. In addition, the hepatic extraction ratio in data set [3] came to 0.75. Moreover, the inhibition in data set [2] was determined as 94%.

Regarding `CCc1cc(=O)n2nc(-c3ccccc3)c(-c3ccccc3)c2[nH]1`, the pIC50 in data set [1] is 5.44. In addition, in data set [2], the inhibition turned out to be 54%.

For the compound `Cc1[nH]c2c(N3CCCCC3)c(-c3ccccc3)nn2c(=O)c1-c1ccc2c(c1)OCO2`, the pIC50 in data set [1] is 8.10. Moreover, in data set [3], the hepatic extraction ratio stood at 0.83. Further, the inhibition in data set [2] is 93%.

For the compound `COc1ccc(-c2c(Nc3ccccn3)[nH]c3c(-c4ccccc4)c(-c4ccccc4)nn3c2=O)cc1`, the pIC50 in data set [1] is 8.15; in data set [5] it was 7.60; in data set [4], 6.10. Further, the hepatic extraction ratio in data set [3] came to 0.13. The inhibition in data set [2] was found to be 85%.

As to `O=c1c(-c2ccc(O)cc2)c(Nc2cc[nH]n2)[nH]c2c(-c3ccccc3)c(-c3ccccc3)nn12`, the pIC50 in data set [1] is 8.15; in data set [4], 6.28. Also, in data set [3], the hepatic extraction ratio is 0.26. In addition, the inhibition in data set [2] was 93%.

On to `Cc1cc(=O)n2nc(-c3cn[nH]c3)c(-c3ccccc3)c2[nH]1`, for which the pIC50 in data set [1] was 4.30. For the same compound, the inhibition result in data set [2] is “inactive”.

Turning to `Cc1[nH]c2c(C3CCCCC3)c(-c3ccccc3)nn2c(=O)c1-c1ccc2ncccc2c1`, the pIC50 in data set [1] was 7.18. For the same compound, the hepatic extraction ratio in data set [3] was 0.66. In addition, in data set [2], the inhibition turned out to be 93%.

With `O=c1c(-c2ccc3ncccc3c2)c(Nc2cc[nH]n2)[nH]c2c(C3=CCCCC3)c(-c3ccccc3)nn12`, the pIC50 in data set [1] is 8.40; in data set [5], 7.74; in data set [4], 7.14. Moreover, the hepatic extraction ratio in data set [3] stood at 0.55. Further, the inhibition in data set [2] is 92%.

In the case of `Nc1cc(=O)n2nc(-c3ccccc3)c(-c3ccccc3)c2[nH]1`, the IC50 result in data set [1] was “Not Active”.

`Cc1cc(=O)n2nc(-c3ccccc3)c(-c3ccccn3)c2[nH]1`: in data set [1], the pIC50 was 5.15. Besides, the inhibition in data set [2] was 79%.

On to `Cc1cc(=O)n2nc(-c3ccccc3)c(C3CCCC3)c2[nH]1`, for which the pIC50 in data set [1] is 6.17. In addition, the inhibition in data set [2] was 88%.

For `Cc1[nH]c2c(C3=CCCCC3)c(-c3ccccc3)nn2c(=O)c1-c1ccc2ncccc2c1`, the pIC50 in data set [1] was 7.60. Moreover, the inhibition in data set [2] came to 96%.

Take `Cc1cc(=O)n2nc(-c3nccs3)c(-c3ccccc3)c2[nH]1`: the pIC50 in data set [1] is 4.10. The inhibition in data set [2] turned out to be 63%.

In the case of `COc1ccc(-c2c(Nc3cnccn3)[nH]c3c(C4=CCCCC4)c(-c4ccccc4)nn3c2=O)cc1`, the results for the pIC50 in data set [1], in data set [5] and in data set [4] were 7.55, 7.80 and 6.39, respectively. Besides, the inhibition in data set [2] was found to be 95%.

In the case of `O=c1cc(Nc2cc[nH]n2)[nH]c2c(-c3ccccc3)c(-c3ccccc3)nn12`, in data set [1], the pIC50 is 6.57. In addition, in data set [2], the inhibition amounted to 88%.

With `Cc1cc(=O)n2nc(C3=CCCCC3)c(-c3ccccc3)c2[nH]1`, the IC50 result in data set [1] is reported as “Not Active”.

On to `Cc1cc(=O)n2nc(-c3cccc(O)c3)c(-c3ccccc3)c2[nH]1`, for which the pIC50 was 4.91 in data set [1], 5.12 in data set [5] and 4.12 in data set [4]. In addition, the inhibition in data set [2] was 92%.

Turning to `Cc1[nH]c2c(N3CCCCC3)c(-c3ccccc3)nn2c(=O)c1-c1ccccc1`, the pIC50 in data set [1] is 6.82. Also, in data set [2], the inhibition came out at 93%.

For `CCOC(=O)c1nnc(Nc2[nH]c3c(-c4ccccc4)c(-c4ccccc4)nn3c(=O)c2-c2ccc3ncccc3c2)o1`, in data set [1], the pIC50 is 8.40. Further, the hepatic extraction ratio in data set [3] was 0.7. The inhibition in data set [2] came to 88%.

For `Cc1[nH]c2c(N3CCCCC3)c(-c3ccccc3)nn2c(=O)c1-c1cn[nH]c1`, in data set [1], the pIC50 is 5.88. Further, the inhibition in data set [2] worked out at 95%.

`Cc1[nH]c2c(N3CCCCC3)c(-c3ccccc3)nn2c(=O)c1-c1ccc2[nH]cnc2c1`: the pIC50 in data set [1] is 7.35. In addition, the hepatic extraction ratio in data set [3] was 0.79. Besides, the inhibition in data set [2] is 92%.

On to `CCOC(=O)n1ccc(Nc2[nH]c3c(-c4ccccc4)c(-c4ccccc4)nn3c(=O)c2-c2ccc(OC)cc2)n1`, for which the negative logarithm of the IC50 (pIC50) in data set [1] is 7.96; in data set [5], 7.82; in data set [4], 6.37. For the same compound, in data set [3], the hepatic extraction ratio was 0.51. For the same compound, in data set [2], the inhibition was 93%.

Turning to `Cc1[nH]c2c(N3CCCCC3)c(-c3ccccc3)nn2c(=O)c1-c1ccncc1`, in data set [1], the pIC50 is 6.80. Besides, the inhibition in data set [2] was found to be 91%.

For `CC(=O)Nc1cc(=O)n2nc(-c3ccccc3)c(-c3ccccc3)c2[nH]1`, the pIC50 in data set [1] is 5.39. Moreover, the inhibition in data set [2] came to 85%.

For the compound `COc1ccc(-c2c(Nc3cc[nH]n3)[nH]c3c(-c4ccccc4)c(-c4ccccc4)nn3c2=O)cc1`, the pIC50 in data set [1] was 7.89; in data set [5] it was 8.10; in data set [4], 3.05. Also, in data set [3], the hepatic extraction ratio is 0.36. In addition, the inhibition in data set [2] was found to be 94%.

For the compound `Cc1cc(=O)n2nc(-c3ccccc3)c(-c3ccco3)c2[nH]1`, the pIC50 in data set [1] is 5.44. Moreover, the inhibition in data set [2] came out at 90%.

`Cc1cc(=O)n2nc(-c3ccccc3)c(C3=CCCC3)c2[nH]1`: the pIC50 in data set [1] is 5.94; in data set [5], 6.23; in data set [4] it was 4.09. The inhibition in data set [2] is 84%.

Take `Cc1cc(=O)n2nc(-c3ccco3)c(-c3ccccc3)c2[nH]1`: the pIC50 in data set [1] is 5.82. For the same compound, in data set [2], the inhibition was 65%.

As to `Cc1[nH]c2c(C3=CCCC3)c(-c3ccccc3)nn2c(=O)c1-c1ccc2ncccc2c1`, in data set [1], the pIC50 is 6.80. Also, the inhibition in data set [2] worked out at 96%.
